19 molecules from ChEMBL document CHEMBL5291721, “A preclinical secondary pharmacology resource illuminates target-adverse drug reaction associations of marketed drugs” (Nat Commun, 2023) can be followed below.

For orientation: AC50 means the concentration giving half of the maximal activity seen. Lower therefore signals activity at low concentration.

In test [1] the target is Kappa-type opioid receptor (Homo sapiens, UniProt P41145).
The target of test [2] is Histamine H3 receptor (Homo sapiens, UniProt Q9Y5N1).
Histamine H3 receptor, sequence (Q9Y5N1 whole entry): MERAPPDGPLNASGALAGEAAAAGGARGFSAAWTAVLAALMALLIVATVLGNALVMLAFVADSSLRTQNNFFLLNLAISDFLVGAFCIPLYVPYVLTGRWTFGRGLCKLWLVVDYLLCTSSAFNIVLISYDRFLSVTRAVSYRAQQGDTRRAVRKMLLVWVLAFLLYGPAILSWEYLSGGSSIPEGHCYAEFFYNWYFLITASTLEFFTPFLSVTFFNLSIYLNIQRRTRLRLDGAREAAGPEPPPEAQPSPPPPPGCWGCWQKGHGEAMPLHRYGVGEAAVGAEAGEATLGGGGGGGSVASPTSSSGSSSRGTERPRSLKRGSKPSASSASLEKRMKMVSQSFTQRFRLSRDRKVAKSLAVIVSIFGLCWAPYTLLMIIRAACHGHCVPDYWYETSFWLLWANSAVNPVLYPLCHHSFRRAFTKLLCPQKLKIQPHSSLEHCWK
In test [3] the target is 5-hydroxytryptamine receptor 2A (Homo sapiens, UniProt P28223). The format is functional, cell-based.
5-hydroxytryptamine receptor 2A, sequence (P28223 whole entry): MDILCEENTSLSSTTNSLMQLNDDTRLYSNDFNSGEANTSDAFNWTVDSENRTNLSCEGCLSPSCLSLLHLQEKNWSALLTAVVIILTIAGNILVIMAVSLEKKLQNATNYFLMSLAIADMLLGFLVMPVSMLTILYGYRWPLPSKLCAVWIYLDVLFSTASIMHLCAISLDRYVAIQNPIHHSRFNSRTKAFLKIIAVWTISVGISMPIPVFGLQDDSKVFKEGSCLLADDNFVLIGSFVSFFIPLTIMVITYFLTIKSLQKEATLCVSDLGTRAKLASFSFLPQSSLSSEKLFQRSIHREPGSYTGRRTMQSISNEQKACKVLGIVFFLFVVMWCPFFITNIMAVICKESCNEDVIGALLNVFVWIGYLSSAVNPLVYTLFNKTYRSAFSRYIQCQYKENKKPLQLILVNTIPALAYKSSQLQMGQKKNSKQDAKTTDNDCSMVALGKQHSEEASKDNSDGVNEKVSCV
The target of test [4] is Histamine H1 receptor (Homo sapiens, UniProt P35367).
Histamine H1 receptor, sequence (P35367 whole entry): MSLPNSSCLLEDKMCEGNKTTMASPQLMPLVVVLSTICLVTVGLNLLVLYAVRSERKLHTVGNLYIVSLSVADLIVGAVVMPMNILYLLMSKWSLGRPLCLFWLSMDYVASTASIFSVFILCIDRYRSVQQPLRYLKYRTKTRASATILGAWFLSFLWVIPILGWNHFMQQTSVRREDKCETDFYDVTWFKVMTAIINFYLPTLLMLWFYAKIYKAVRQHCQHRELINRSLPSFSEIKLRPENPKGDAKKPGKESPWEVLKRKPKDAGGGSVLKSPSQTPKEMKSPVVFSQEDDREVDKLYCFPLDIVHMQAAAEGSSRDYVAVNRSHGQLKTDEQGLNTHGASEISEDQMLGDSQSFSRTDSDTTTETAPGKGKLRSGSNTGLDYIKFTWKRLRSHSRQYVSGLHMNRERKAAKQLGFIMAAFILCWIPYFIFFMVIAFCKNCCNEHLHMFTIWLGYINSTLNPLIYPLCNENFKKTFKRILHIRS
For test [5], the target named is 5-hydroxytryptamine receptor 2B (Homo sapiens, UniProt P41595). The format is functional, cell-based.
5-hydroxytryptamine receptor 2B, sequence (P41595 whole entry): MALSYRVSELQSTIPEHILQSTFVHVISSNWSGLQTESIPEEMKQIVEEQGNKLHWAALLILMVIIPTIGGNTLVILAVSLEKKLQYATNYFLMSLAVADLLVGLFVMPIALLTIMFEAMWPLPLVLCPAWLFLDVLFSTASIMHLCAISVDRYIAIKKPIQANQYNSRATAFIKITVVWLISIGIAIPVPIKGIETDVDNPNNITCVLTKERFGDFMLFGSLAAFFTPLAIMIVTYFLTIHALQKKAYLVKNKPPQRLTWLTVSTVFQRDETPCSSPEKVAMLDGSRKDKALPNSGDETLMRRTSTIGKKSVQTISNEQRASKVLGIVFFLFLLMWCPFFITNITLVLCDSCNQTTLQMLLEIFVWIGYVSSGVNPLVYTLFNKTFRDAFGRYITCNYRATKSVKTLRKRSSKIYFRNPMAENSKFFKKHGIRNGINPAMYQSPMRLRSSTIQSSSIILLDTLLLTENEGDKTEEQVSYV
The target in test [6] is T1, Alpha-2B adrenergic receptor (Homo sapiens, UniProt P18089).
T1 sequence (P18089 whole entry): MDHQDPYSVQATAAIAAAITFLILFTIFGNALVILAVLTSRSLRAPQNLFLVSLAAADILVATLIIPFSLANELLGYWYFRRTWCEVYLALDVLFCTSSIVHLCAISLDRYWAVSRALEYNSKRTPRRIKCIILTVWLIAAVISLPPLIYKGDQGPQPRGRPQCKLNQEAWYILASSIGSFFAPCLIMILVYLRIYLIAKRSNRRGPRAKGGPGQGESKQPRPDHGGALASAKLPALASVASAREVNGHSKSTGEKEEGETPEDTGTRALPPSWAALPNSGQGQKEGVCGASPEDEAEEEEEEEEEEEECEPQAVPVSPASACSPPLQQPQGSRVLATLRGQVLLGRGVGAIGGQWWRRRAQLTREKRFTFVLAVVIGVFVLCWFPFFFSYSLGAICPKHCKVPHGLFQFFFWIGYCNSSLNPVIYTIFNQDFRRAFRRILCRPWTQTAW

The target of test [7] is Acetylcholinesterase (Homo sapiens, UniProt P22303). The format is functional.
Acetylcholinesterase, sequence (P22303 whole entry): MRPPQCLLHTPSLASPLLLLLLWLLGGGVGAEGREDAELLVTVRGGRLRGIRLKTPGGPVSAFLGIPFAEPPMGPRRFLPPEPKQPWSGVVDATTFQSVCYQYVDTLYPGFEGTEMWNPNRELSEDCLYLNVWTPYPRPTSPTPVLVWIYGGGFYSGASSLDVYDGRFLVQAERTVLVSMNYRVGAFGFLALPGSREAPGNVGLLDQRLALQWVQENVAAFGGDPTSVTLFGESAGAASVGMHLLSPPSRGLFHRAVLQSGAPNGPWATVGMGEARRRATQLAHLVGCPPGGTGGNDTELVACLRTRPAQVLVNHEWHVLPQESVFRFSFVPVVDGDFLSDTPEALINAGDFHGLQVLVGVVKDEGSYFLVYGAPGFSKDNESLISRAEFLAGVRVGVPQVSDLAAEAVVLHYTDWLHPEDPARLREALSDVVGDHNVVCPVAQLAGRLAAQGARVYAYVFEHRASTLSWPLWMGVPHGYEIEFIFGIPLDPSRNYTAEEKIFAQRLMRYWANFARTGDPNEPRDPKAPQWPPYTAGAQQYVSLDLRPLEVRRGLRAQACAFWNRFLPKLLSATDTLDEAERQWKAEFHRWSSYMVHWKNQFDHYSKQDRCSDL
Test [8] concerns the target T2, Progesterone receptor (Homo sapiens, UniProt P06401).
T2 sequence (P06401 whole entry): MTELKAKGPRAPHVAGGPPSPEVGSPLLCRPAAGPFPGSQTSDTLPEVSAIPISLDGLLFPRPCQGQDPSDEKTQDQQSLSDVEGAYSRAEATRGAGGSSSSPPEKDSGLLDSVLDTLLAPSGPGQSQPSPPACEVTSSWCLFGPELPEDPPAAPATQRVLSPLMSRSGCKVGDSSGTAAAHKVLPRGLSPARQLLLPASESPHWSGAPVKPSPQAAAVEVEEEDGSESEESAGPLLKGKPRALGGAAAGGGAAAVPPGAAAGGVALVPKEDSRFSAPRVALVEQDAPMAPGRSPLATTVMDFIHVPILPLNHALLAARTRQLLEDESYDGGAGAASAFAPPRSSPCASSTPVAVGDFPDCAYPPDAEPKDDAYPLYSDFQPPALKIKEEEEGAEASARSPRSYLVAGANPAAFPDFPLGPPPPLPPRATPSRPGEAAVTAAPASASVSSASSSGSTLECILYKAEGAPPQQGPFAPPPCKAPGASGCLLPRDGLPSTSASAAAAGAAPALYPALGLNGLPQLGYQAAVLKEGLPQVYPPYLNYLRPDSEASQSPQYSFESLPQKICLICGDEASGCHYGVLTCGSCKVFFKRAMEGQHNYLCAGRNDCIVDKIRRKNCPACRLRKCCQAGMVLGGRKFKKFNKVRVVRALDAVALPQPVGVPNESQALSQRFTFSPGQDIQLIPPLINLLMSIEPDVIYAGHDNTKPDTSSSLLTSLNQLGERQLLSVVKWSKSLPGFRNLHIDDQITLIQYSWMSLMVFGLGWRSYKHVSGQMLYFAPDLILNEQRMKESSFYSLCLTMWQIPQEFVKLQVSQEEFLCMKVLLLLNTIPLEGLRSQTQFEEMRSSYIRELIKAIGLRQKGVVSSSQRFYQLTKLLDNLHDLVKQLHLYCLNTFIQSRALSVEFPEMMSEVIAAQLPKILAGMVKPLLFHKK

Test [9] deals with T3, Adenosine receptor A3 (Homo sapiens, UniProt P0DMS8).
T3 sequence (P0DMS8 whole entry): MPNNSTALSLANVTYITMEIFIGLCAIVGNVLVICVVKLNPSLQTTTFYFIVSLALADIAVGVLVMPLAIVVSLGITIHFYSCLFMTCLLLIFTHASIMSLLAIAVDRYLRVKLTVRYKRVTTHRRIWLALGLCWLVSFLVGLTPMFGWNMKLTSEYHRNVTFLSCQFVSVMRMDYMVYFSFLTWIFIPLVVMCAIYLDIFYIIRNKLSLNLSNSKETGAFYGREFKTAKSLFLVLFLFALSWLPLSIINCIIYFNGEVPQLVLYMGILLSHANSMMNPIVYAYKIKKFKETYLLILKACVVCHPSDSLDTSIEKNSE

Test [10] addresses Sodium-dependent noradrenaline transporter (Homo sapiens, UniProt P23975).
For test [11], the target named is cGMP-inhibited 3',5'-cyclic phosphodiesterase 3A (Homo sapiens, UniProt Q14432). The format is functional.
cGMP-inhibited 3',5'-cyclic phosphodiesterase 3A, sequence (Q14432 whole entry): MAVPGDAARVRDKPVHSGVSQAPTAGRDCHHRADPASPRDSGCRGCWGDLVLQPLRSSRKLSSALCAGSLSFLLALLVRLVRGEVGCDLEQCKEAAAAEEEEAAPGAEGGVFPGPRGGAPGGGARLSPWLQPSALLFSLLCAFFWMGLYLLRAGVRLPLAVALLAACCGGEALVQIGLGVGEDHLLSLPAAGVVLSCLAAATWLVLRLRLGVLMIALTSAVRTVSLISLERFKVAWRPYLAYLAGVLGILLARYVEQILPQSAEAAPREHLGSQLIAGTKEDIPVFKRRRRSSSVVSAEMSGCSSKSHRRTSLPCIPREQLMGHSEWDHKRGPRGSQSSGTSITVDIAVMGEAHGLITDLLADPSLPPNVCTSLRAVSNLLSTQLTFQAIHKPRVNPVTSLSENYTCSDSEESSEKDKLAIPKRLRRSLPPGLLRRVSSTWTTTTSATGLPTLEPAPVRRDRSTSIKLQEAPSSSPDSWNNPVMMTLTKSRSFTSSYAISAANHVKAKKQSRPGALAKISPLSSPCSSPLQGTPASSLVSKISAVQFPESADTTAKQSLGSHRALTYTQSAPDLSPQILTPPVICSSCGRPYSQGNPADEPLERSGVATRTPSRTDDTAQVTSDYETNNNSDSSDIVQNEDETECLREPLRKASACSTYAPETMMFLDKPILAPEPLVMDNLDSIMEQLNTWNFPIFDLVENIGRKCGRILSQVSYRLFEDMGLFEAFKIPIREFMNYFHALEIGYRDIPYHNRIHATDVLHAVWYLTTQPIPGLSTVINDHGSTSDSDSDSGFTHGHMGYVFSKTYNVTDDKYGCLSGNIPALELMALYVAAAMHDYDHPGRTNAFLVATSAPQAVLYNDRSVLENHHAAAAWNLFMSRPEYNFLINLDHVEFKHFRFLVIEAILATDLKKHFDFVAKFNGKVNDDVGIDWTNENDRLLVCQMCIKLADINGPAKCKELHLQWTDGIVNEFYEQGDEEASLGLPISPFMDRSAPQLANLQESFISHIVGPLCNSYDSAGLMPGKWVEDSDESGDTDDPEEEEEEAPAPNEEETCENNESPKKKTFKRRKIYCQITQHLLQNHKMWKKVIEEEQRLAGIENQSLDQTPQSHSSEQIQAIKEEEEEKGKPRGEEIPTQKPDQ
Test [12] has as its target T4, Thromboxane A2 receptor (Homo sapiens, UniProt P21731).
T4 sequence (P21731 whole entry): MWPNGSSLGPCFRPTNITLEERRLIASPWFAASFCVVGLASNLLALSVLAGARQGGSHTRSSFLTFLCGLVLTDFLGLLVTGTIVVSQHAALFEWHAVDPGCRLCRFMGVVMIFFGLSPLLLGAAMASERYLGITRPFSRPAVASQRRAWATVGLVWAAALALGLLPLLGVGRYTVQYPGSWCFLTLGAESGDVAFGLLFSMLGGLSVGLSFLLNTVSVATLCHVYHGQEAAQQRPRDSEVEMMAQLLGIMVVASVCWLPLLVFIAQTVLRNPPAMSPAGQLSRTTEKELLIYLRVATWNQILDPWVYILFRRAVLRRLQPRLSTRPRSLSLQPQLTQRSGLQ
It counts as functional, cell-based.
Note: assay procedure not described here.

Sodium-dependent noradrenaline transporter, sequence (P23975 whole entry): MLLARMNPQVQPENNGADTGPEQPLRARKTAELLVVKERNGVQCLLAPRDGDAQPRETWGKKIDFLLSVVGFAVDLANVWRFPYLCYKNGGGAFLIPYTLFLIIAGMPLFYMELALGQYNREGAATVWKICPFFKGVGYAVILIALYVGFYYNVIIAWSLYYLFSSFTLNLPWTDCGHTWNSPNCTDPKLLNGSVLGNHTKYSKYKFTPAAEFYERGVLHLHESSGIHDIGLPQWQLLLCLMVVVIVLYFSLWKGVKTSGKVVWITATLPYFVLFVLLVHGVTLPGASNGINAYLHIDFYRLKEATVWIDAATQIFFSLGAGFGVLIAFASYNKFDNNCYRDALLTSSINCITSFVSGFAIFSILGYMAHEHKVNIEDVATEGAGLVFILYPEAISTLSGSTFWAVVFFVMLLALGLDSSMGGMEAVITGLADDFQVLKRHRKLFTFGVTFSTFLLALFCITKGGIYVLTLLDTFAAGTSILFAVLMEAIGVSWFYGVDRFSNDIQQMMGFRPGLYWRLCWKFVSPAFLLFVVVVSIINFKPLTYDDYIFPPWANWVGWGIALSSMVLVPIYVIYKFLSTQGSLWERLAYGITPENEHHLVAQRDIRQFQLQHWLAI
Kappa-type opioid receptor, sequence (P41145 whole entry): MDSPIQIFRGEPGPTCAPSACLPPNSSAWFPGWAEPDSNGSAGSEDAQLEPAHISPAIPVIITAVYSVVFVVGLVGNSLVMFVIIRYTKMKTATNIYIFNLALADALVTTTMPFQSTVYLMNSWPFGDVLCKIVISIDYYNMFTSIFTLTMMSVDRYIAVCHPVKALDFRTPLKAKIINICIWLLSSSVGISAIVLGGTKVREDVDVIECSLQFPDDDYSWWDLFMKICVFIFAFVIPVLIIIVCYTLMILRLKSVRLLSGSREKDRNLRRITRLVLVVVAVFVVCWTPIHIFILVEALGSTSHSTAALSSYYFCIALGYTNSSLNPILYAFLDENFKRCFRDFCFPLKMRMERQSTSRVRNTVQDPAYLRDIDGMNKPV

With `CCCCN1C[C@H](O)[C@@H](O)[C@H](O)[C@H]1CO`, the AC50 in [1], in test [2], in [3], in [4], in test [5] and in [6] was above 30 µM each time.
`Nc1nc(NC2CC2)c2ncn([C@H]3C=C[C@@H](CO)C3)c2n1` [ABACAVIR]: the AC50 in [1], in test [2], in test [3], in test [4] and in test [6] was above 30 µM each time.
For the molecule `CC(=O)NCCCS(=O)(=O)O` [ACAMPROSATE], the concentration at half-maximal activity (AC50) in test [1], in [2], in test [3], in test [4], in test [5] and in test [6] was above 30 µM throughout.
Consider `COc1cc2nc(N(C)CCCNC(=O)C3CCCO3)nc(N)c2cc1OC` (configuration not stated) [ALFUZOSIN], for which the AC50 is above 30 µM in test [1]; above 30 µM in test [2]; above 30 µM in [3]; above 30 µM in test [4]; above 30 µM in [5]; 8.9 µM in test [6].
For the molecule `COC(c1ccccc1)(c1ccccc1)[C@H](Oc1nc(C)cc(C)n1)C(=O)O` [AMBRISENTAN], the AC50 in test [7], in test [8], in [9], in test [10], in [11] and in [12] was above 30 µM in each case.
For the molecule `CN(C)CCn1nnnc1SCC1=C(C(=O)O)N2C(=O)[C@@H](NC(=O)Cc3csc(N)n3)[C@H]2SC1` [CEFOTIAM], the AC50 in [7], in test [8], in test [9], in [10], in test [11] and in test [12] was above 30 µM throughout.
Consider `COCc1c(C(C)C)nc(C(C)C)c(/C=C/[C@@H](O)C[C@@H](O)CC(=O)O)c1-c1ccc(F)cc1` [CERIVASTATIN], for which the AC50 in test [7], in test [8], in test [9], in [10], in test [11] and in [12] was above 30 µM each time.
On to `Oc1c(Cl)cc(Cl)c2cccnc12` [CHLOROXINE], for which the half-maximal activity concentration (AC50) in [7] is above 30 µM; in [8], above 30 µM; in test [9] it was above 30 µM; in test [10] it was 5.19 µM; in test [11], above 30 µM; in [12], above 30 µM.
`CN(C)CC(c1ccc(O)cc1)C1(O)CCCCC1` (configuration not stated) [DESVENLAFAXINE]: the AC50 in [7], in test [8], in test [9], in test [11] and in [12] was above 30 µM each time.
On to `O=C(Cc1ccc(-c2ccccc2)cc1)Nc1ccccn1` [DIFENPIRAMIDE], for which the AC50 in [7] was above 30 µM; in test [1], above 30 µM; in test [8], above 30 µM; in test [10], 2.16 µM; in [11], above 30 µM; in test [3], above 30 µM. The AC50 in test [4], in test [5], in test [6] and in test [12] was above 30 µM each time.
For `CN1C(C(=O)Nc2ccccn2)=C(O)c2sc(Cl)cc2S1(=O)=O` [LORNOXICAM], the AC50 was above 10 µM in [1]; above 10 µM in test [2]; above 30 µM in [3]; above 10 µM in test [4]; above 10 µM in test [5]; above 10 µM in [6].
For `CC1(C)NC(=O)N(c2ccc([N+](=O)[O-])c(C(F)(F)F)c2)C1=O` [NILUTAMIDE], the AC50 is above 30 µM in test [7]; above 30 µM in test [1]; 12.7 µM in test [8]; above 30 µM in test [10]; above 30 µM in test [2]; above 30 µM in [11]. Also, the AC50 in [3], in test [4], in test [5], in test [6] and in test [12] was above 30 µM each time.
For the molecule `COc1cc(NC(C)CCCN)c2ncccc2c1` (configuration not stated) [PRIMAQUINE], the AC50 is 15.4 µM in [8], 14.7 µM in test [9], 22.5 µM in test [11] and above 30 µM in [12].
For `COCCCN1CCC(NC(=O)c2cc(Cl)c(N)c3c2OCC3)CC1` [PRUCALOPRIDE], the AC50 in test [7] is 26.7 µM; in test [8] it was above 30 µM; in test [10], above 30 µM; in [2], above 30 µM; in test [11], above 30 µM; in test [3], above 30 µM. Moreover, the AC50 in test [4], in test [5], in [6] and in [12] was above 30 µM throughout.
As for `COc1ccccc1OCC(O)CN1CCN(CC(=O)Nc2c(C)cccc2C)CC1` (configuration not stated) [RANOLAZINE], the AC50 in test [1] is above 30 µM; in test [2], above 30 µM; in [3], above 30 µM; in test [4], above 30 µM; in [5], 11 µM; in [6], 17 µM.
As for `Cc1c(C(=O)NN2CCCCC2)nn(-c2ccc(Cl)cc2Cl)c1-c1ccc(Cl)cc1` [RIMONABANT], the AC50 in test [2] is above 30 µM; in test [3], above 30 µM; in test [4], 22 µM; in [5] it was 14 µM; in test [6], 23 µM.
As to `Cn1nnc2c(C(N)=O)ncn2c1=O` [TEMOZOLOMIDE], the AC50 was above 10 µM in test [1]; above 30 µM in [2]; above 30 µM in test [3]; above 30 µM in test [4]; above 30 µM in [5]; above 30 µM in test [6].
For the molecule `O=C(O[C@H]1C[C@H]2CC[C@@H](C1)[N+]21CCCC1)C(O)(c1ccccc1)c1ccccc1` [TROSPIUM], the half-maximal activity concentration (AC50) is above 30 µM in [1]; above 30 µM in test [2]; above 30 µM in test [3]; 11 µM in [4]; above 30 µM in test [5]; above 30 µM in [6].
Consider `NS(=O)(=O)Cc1noc2ccccc12` [ZONISAMIDE], for which the AC50 in test [1], in test [2], in [3], in test [4], in test [5] and in [6] was above 10 µM in each case.
